Measured values reported in the supplement of paper PMC5908809.

Experiments:
Experiment in all cases: relative IC50 (inflection point of fitted viability curve, relative to fitted max inhibition); higher = less sensitive
Details in all cases: 72 h
DERL-7 (IL-2 2.5 ng/mL) = tested on: DERL-7 (IL-2 2.5 ng/mL)
Protocol: (§1)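 Drug sensitivity and resistance testing: 5 concentrations over a 10,000-fold range, 72 h at 37 °C, viability by CellTiter-Glo normalised to DMSO and benzethonium chloride controls. IC50 is the inflection point of a logistic fit (min fixed at 0, max fitted), so it is relative to the fitted maximal inhibition. Kept only where fitted max inhibition is at least 50%.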

IMC-1 (IL-2 20 ng/mL) = tested on: IMC-1 (IL-2 20 ng/mL)
Protocol: as §1

KAI3 (IL-2 2.5 ng/mL) = tested on: KAI3 (IL-2 2.5 ng/mL)
Protocol: as §1

KHYG-1 (IL-2 2.5 ng/mL) = tested on: KHYG-1 (IL-2 2.5 ng/mL)
Protocol: as §1

NK-92 (IL-2 2.5 ng/mL) = tested on: NK-92 (IL-2 2.5 ng/mL)
Protocol: as §1

NK-YS (IL-2 2.5 ng/mL) = tested on: NK-YS (IL-2 2.5 ng/mL)
Protocol: as §1

NKL (IL-2 2.5 ng/mL) = tested on: NKL (IL-2 2.5 ng/mL)
Protocol: as §1

SNK-6 (IL-2 2.5 ng/mL) = tested on: SNK-6 (IL-2 2.5 ng/mL)
Protocol: as §1

YT (IL-2 2.5 ng/mL) = tested on: YT (IL-2 2.5 ng/mL)
Protocol: as §1

[1] = tested on: normal primary NK cells, pool 1 (3 donors) (IL-2 2.5 ng/mL)
Protocol: as §1

[2] = tested on: normal primary NK cells, pool 1 (3 donors), resting (IL-2 0 ng/mL)
Protocol: as §1

[3] = tested on: normal primary NK cells, pool 2 (3 donors) (IL-2 2.5 ng/mL)
Protocol: as §1

[4] = tested on: normal primary NK cells, pool 3 (3 donors) (IL-2 2.5 ng/mL)
Protocol: as §1

SMILES	relative IC50 (DERL-7 (IL-2 2.5 ng/mL)) [nM]	relative IC50 (IMC-1 (IL-2 20 ng/mL)) [nM]	relative IC50 (KAI3 (IL-2 2.5 ng/mL)) [nM]	relative IC50 (KHYG-1 (IL-2 2.5 ng/mL)) [nM]	relative IC50 (NK-92 (IL-2 2.5 ng/mL)) [nM]	relative IC50 (NK-YS (IL-2 2.5 ng/mL)) [nM]	relative IC50 (NKL (IL-2 2.5 ng/mL)) [nM]	relative IC50 (SNK-6 (IL-2 2.5 ng/mL)) [nM]	relative IC50 (YT (IL-2 2.5 ng/mL)) [nM]	relative IC50 [1] [nM]	relative IC50 [2] [nM]	relative IC50 [3] [nM]	relative IC50 [4] [nM]
C[C@@H]1CN(CC(=O)Nc2ccc3c(c2)Cc2cccc(-c4cc(=O)cc(N5CCOCC5)o4)c2S3)C[C@H](C)O1	4940	7360	4210	4430	4490	5880	3200	6050	6110	5660	3480	5660	8100
CC/C(=C(\c1ccc(O)cc1)c1ccc(OCCN(C)C)cc1)c1ccccc1 [4-hydroxytamoxifen]	1690	2130	2640	1290	2850	2250	2700	3890	2330	3340	3750	2700	–
Cc1csc(-c2nnc(Nc3ccc(Oc4ncccc4-c4ccnc(N)n4)cc3)c3ccccc23)c1 [AMG-900]	11.1	123	–	11.3	58.5	5.4	> 1000	2.8	–	> 1000	–	> 1000	–
CC(C)[C@H](C(=O)Nc1ccc(C(=O)NO)cc1)c1ccccc1 [AR-42]	331	289	77.2	240	129	540	219	241	527	367	297	430	527
CN[C@@H](C)C(=O)N[C@H]1CN(C(=O)CC(C)C)CC[C@H]2CC[C@@H](C(=O)NC(c3ccccc3)c3ccccc3)N2C1=O [AT-406]	–	–	1920	1450	–	–	–	–	–	1230	1250	1410	1690
CC[C@H](CC#N)OC(=O)N[C@@H](C)c1cccc(NC(=O)Nc2ccc(-c3cnco3)c(OC)c2)c1 [AVN944]	104	622	117	103	166	103	117	67.7	138	–	2170	–	–
CC(C)Oc1cc(Nc2nc(N[C@@H](C)c3ccc(F)cn3)ncc2Cl)n[nH]1 [AZ-23]	–	–	–	–	–	–	–	–	–	–	> 1000	606	–
Cc1cc(Nc2nc(N[C@@H](C)c3ncc(F)cn3)ncc2Cl)[nH]n1 [AZD1480]	50.5	331	20.8	26.1	126	78.1	23.3	73.1	197	75.5	–	80.6	123
COc1cccc2c1C(=O)c1c(O)c3c(c(O)c1C2=O)C[C@@](O)(/C(CO)=N/NC(=O)CCCCCN1C(=O)C=CC1=O)C[C@@H]3O[C@H]1C[C@H](N)[C@H](O)[C@H](C)O1 [Aldoxorubicin]	31.2	44.6	41.9	57.7	94.9	34.3	4.2	21.7	70.8	140	71.6	96.6	134
CN(C)CCN1C(=O)c2cccc3cc(N)cc(c23)C1=O [Amonafide]	1760	1940	1280	1970	1400	1380	1240	1700	2140	3500	2250	2650	2410
Cc1c(CN2CCN(C(=O)[C@H](C)O)CC2)sc2c(N3CCOCC3)nc(-c3cnc(N)nc3)nc12 [Apitolisib]	204	–	457	1600	145	599	492	–	622	902	–	1320	2310
CC(=O)OC[C@H]1O[C@@H]([S-])[C@H](OC(C)=O)[C@@H](OC(C)=O)[C@@H]1OC(C)=O.CCP(CC)CC.[Au+] [Auranofin]	274	761	859	507	791	551	241	319	824	53.6	26.1	102	78.4
Nc1nc(Nc2ccc3c(c2)CC[C@@H](N2CCCC2)CC3)nn1-c1cc2c(nn1)-c1ccccc1CCC2 [BGB324]	508	3400	1110	836	1020	2020	533	1290	2250	766	437	1070	1620
Cn1c(CCCC(=O)O)nc2cc(N(CCCl)CCCl)ccc21 [Bendamustine]	–	–	–	–	–	2600	1420	1680	–	3960	3780	2960	2330
Cc1c(N)nc([C@H](CC(N)=O)NC[C@H](N)C(N)=O)nc1C(=O)N[C@H](C(=O)N[C@H](C)[C@@H](O)[C@H](C)C(=O)N[C@H](C(=O)NCCc1nc(-c2nc(C(=O)NCCC[S+](C)C)cs2)cs1)[C@@H](C)O)[C@@H](OC1OC(CO)C(O)C(O)C1OC1OC(CO)C(O)C(OC(N)=O)C1O)c1cnc[nH]1 (some centres undefined) [Bleomycin]	1220	1480	537	2270	662	635	1150	41.8	1530	2140	3560	1510	1150
O=C(O)CCCc1ccc(N(CCCl)CCCl)cc1 [Chlorambucil]	–	–	1620	3160	3200	1930	1410	2210	–	2830	1660	2960	3180
Nc1nc(Cl)nc2c1ncn2[C@@H]1O[C@H](CO)[C@@H](O)[C@@H]1F [Clofarabine]	21.7	54.1	49.6	35	31.2	67	35.6	42.8	225	14.4	7.76	22.3	28
CCN(CC)CCOc1ccc(C(=C(Cl)c2ccccc2)c2ccccc2)cc1 [Clomifene]	1580	2410	1840	2490	1710	2280	2280	1730	3030	2560	2170	1810	1540
CC1(COc2ccc3c(c2)ncn3-c2ccc3cccc(N4CCC(N)CC4)c3n2)COC1 [Crenolanib]	984	2710	2250	1820	998	1890	633	429	1600	1640	3660	1350	1640
C[C@@H]1C[C@H]2[C@@H]3CCC4=CC(=O)C=C[C@]4(C)[C@@]3(F)[C@@H](O)C[C@]2(C)[C@@]1(O)C(=O)CO [Dexamethasone]	8.07	> 10000	–	89.3	–	–	7.41	–	–	14.1	4.64	11.8	28.8
CCc1cnn2c(NCc3ccc[n+]([O-])c3)cc(N3CCCC[C@H]3CCO)nc12 [Dinaciclib]	13.7	11	8.92	11.3	7.4	4.68	4.24	4.4	3.6	10.9	16.4	3.72	6.24
